Read-outs that look alike come from different tables or passages of the source.
Key:
[1] = TLC analysis of stability after purification; type: physicochemical; conditions: 24 hours after purification, in sodium ascorbate aqueous solution (final concentration 1%)
Method: The crude product solution (1 μL) was analyzed by thin-layer chromatography (TLC). The sample was spotted on a thin-layer plate (silica gel 60F254), and a mixed solvent of acetonitrile/water (2/1) was used as a developing solvent. The thin-layer plate was exposed to an imaging plate (BAS IP MS 2025E, GE Healthcare) for about 15 min, and then analyzed by a bioimage analyzer (Tyhoon™ FLA-7000, Cytiva). The results are shown in FIG. 2. ^211At-AAMT-OMe in the crude product solution was detected at Rf 0.80, and the radiochemical yield (RCY) was 81.3%.
(§1) The crude product solution was injected into an HLB column (Oasis, WAT-186005125) equilibrated with sterile distilled water (1 mL) to capture the target product in the cartridge, and sterile distilled water was passed through the cartridge to elute impurities. Next, 30% ethanol solution (500 μL) was passed through the cartridge to elute the target product into sodium ascorbate aqueous solution (500 μL, final concentration 1%), thus obtaining the purified product. The radiochemical yield and radiochemical purity of the purified product were 81% and 98%, respectively.
Before purification, immediately after production, 3 hours after production, and 24 hours after production, ^211At-AAMT-OMe was analyzed by thin-layer chromatography (TLC) in the same manner as described above.
as §1, with “product. This purified product was analyzed by thin-layer chromatography (TLC) in the same manner as described above.” for “product.”, “79.6%” for “81%”, “99.9%,” for “98%,”
24 hours after production, (R)-^211At-AAMT-OMe was analyzed by thin-layer chromatography (TLC) in the same manner as described above.
as §1, with “product. This purified product was analyzed by thin-layer chromatography (TLC) in the same manner as described above.” for “product.”, “75.9%” for “81%”, “99.27%,” for “98%,”
24 hours after production, ^211At-AAMT-OEt was analyzed by thin-layer chromatography (TLC) in the same manner as described above.
The crude product solution was injected into an HLB column (Oasis, WAT-186005125) equilibrated with sterile distilled water (1 mL) to capture the target product in the cartridge, and sterile distilled water was passed through the cartridge to elute impurities. […] This purified product was analyzed by thin-layer chromatography (TLC) in the same manner as described above. […]
24 hours after production, ^211At-AAMT-OPr was analyzed by thin-layer chromatography (TLC) in the same manner as described above. […]

[2] = test system: Gem-resistant PANC1 (PANC1 Gem-r); conditions: in vivo
Method: (§2) Thirty days after administration, the mice were euthanized and tumor masses were isolated. After fat tissue and the like were trimmed off, the wet weights of the isolated tumor masses were measured to make a histogram.

[3] = test system: CDDP-resistant A549 (A549 CDDP-r); conditions: A549 CDDP-r tumor weight 30 days after administration, 0.5 MBq/0.2 mL per mouse, tail vein
Method: as §2

[4] = test system: human pancreatic cancer cell line (PANC1); type: in vivo, human (PANC1) in Balb/c-nu/nu mice; conditions: 1 MBq/0.2 mL per mouse, tail vein
Text: The experiment was terminated 21 days after administration.

[5] = test system: human pancreatic cancer cell line (PANC1); test: Therapeutic test on PANC1 subcutaneously transplanted mice (28 days); type: in vivo, human (PANC1) in Balb/c-nu/nu mice; conditions: 1 MBq/0.2 mL per mouse, tail vein
Text: Twenty-eight days after administration, the mice were euthanized and subjected to autopsy, and tumor masses were isolated after organs were examined for abnormalities.

COc1ccc(C[C@](C)(N)C(=O)O)cc1[At] [^211At-AAMT-OMe, (S)-3-astato(^211At)-O-methyl-α-methyltyrosine]
decomposition by TLC [1]: no decomposition | anti-tumor effect [2]: higher on Gem-resistant PANC1 (PANC1 Gem-r) than on PANC1 | tumor growth inhibiting effect [2]: higher tumor growth inhibiting effect on the gemcitabine-resistant PANC1 cells | anti-tumor effect [3]: higher than that of ^211At-AAMT on CDDP-resistant A549 | apparent toxicity ([4]; 21 days): apparent toxicity induced by their administration was not observed | lesions other than tumor at autopsy ([4]; 21 days): lesions other than tumor were not observed | mouse body weight ([4]; up to 21 days after administration): gently increased | anti-tumor effect ([5]; 28 days after administration): slightly higher than that of ^211At-AAMT | tumor size ([5]; 28 days after administration): slightly smaller than that of the ^211At-AAMT administration group | mouse body weight ([5]; up to 28 days after administration): tends to slightly reduce, but the body weight reduction is significantly smaller than that of the control group, and is therefore not at a level regarded as a side effect
